# Assay results as given in patent publication US20190365927A1, “COMPOSITION FOR PHOTODYNAMIC THERAPY USING GENE EXPRESSING FLUORESCENT PROTEIN AND PHOTOSENSITIZER, AND PHOTODYNAMIC THERAPY METHOD USING SAME” (priority 2017, published 2019).
# Experiments:
# eGFP+ 4T1 cells = experiment: In vitro PDT with rose bengal and blue laser light, MTT analysis; format: cell-based
# Experimental: (§1) The photo inducing death of GFP− and GFP+ cells after blue light irradiation was measured by MTT analysis in the presence or absence of rose bengal (RB). The specific experimental procedure is as follows.
# (§2) RB was diluted with DMEM containing 10% FBS to produce RB at concentrations of 6.25, 12.5, 25, 50, and 100 μM. GFP− and GFP+ cells were pre-incubated in 96-well, black, and clear bottom plates at a density of 2×10^4 cells per well. Then cells were incubated with RB for 4 hours. The addition of a fresh culture medium without photosensitizer to the wells was performed. This was used as an untreated control. Cells were washed 3 times with PBS buffer.
# (§3) In the PDT-treated group, the cell was irradiated with blue laser light (473 nm, radiation dose rate=80 mW/cm^2) for 1 to 60 seconds. The toxicity of pure RB on GFP+ and GFP− cells was measured in the dark room. After the irradiation, the fresh culture medium was added to the wells, and cells were cultured again for 24 hours. The medium was then measured by MTT assay. 150 μL of solubilizing solution and stop solution were added thereto, followed by incubation at 37° C. for 4 hours. The absorbance of the reaction solution was measured at 570 nm. Cell viability was calculated by the following equation:
# (ODtreated/ODcontrol)×100%.
# (§4) Each experiment was performed independently. Cell death was measured by LDH analysis.
# Th cells were seeded on a 24-well plate at a density of 5×10^4 per well. After the photosensitizer treatment thereto, blue light was irradiated thereto as described above. Each culture medium was prepared. For LDH analysis, LDH Cytotoxicity Assay kit (Cayman Chemical Company, Ann Arbor, Mich., USA) was used according to the producer protocol. 100 μL of the supernatant of the cultured cells was transferred from the well to a corresponding well of the new plate, and then 100 μL of the reaction solution was added to each well. The plates were incubated for 30 minutes at room temperature while executing gentle shaking thereof with an orbital shaker. The absorbance was measured at 490 nm using a plate reader.
# [1] = Absorbance spectrum of the photosensitizer; format: physicochemical; conditions: FIG. 1A
# [2] = system: GFP+ A549, RFP+ A549 and YFP+ A549 cells; experiment: In vitro PDT of GFP+, RFP+ and YFP+ cells with photosensitizer, MTT analysis; format: cell-based, human; conditions: 1 μM, blue laser light (488 nm), FIG. 20
# Experimental: Photo inducing death of GFP+, RFP+, and YFP+ cells via the photosensitizer was measured by MTT analysis. The specific experimental procedure is as follows.
# To investigate photo inducing death of GFP+ cells, RFP+ cells, and YFP+ cells via the photosensitizer, rose bengal, hematoporphyrin (Sigma-aldrich #5518) or 5-ALA (5-Aminolevulinic acid hydrochloric, Sigma-aldrich # A3785) was diluted with RPMI medium containing 10% FBS. 1 μM concentration of rose bengal, hematoporphyrin or 5-ALA was prepared. Further, GFP+ A549 cells, RFP+ A549 cells and YFP+ A549 cells selected from the 1-4 were pre-incubated at a density of 5×10^3 cells per well on 96-well, black, and clear bottom plates. A549 cells with pcDNA 3.1 vector injected thereto were cultured as control. Then, each of the photosensitizers as produced was applied or not applied to the preincubated cells in the preincubated cells which in turn were cultured for 4 hours. After 4 hours, the cells were washed three times with PBS buffer. Irradiation or non-irradiation of blue laser light (488 nm; radiation dose rate=2 J/cm^2) or yellow laser light (570 nm; radiation dose rate=2 J/cm^2) thereto was carried out for 5 seconds. After irradiation or non-irradiation, a fresh culture medium was added to the wells. The cells were cultured again for 24 hours. MTT analysis was then performed.
# [3] = system: eGFP+ and eGFP− H460 and B16F10 tumors; experiment: Tumor-transplanted animal test (cFRET PDT); format: in vivo, mice
# Experimental: B 16F10 and GFP-B16-F0 Melanoma cells were harvested using a cell lifter and were resuspended in serum-free DMEM. Approximately 2×10^6/100 μL of B16F10 and GFP-B16-F0 melanoma cells were subcutaneously injected into both sides of female C57BL/6 mice. After 10 to 15 days, mice were divided into 4 groups based on the mean tumor diameter when the mean tumor diameter reached a minimum of 0.3 cm. The mice were then randomly divided into 4 groups (n=5 per group). Control animals received 0.9% saline instead of chemical substance.
# In the experimental group, RB ([…], 53 nM/mL) was intravenously administered thereto twice a week, and blue light (2 min) was irradiated to the tumor site in 4 hours after the injection. The mouse body weight and tumor volume were measured twice a week. Three weeks later, the mice were euthanized. Tumors were removed therefrom and fixed to 10% neutral buffered formalin. The next day, the image was captured. Similar experiments were performed on GFP+ and GFP-H460 cells. About 2×10^6/100 μL of cells were injected subcutaneously into both sides thereof.
# eGFP− 4T1 cells = experiment: In vitro PDT with rose bengal and blue laser light, MTT analysis; format: cell-based, Mus musculus; conditions: 473 nm laser light after RB treatment, similar conditions, FIG. 2A
# Experimental: as §1, §2
# as §3, with “150 μL of solubilizing solution and stop solution were added thereto, followed by incubation at 37° C. for 4 hours.” left out, “equation: […]” for “equation:”
# as §4
# Th cells were seeded on a 24-well plate at a density of 5×10^4 per well. […] The absorbance was measured at 490 nm using a plate reader.
# eGFP+-Lgr5+ cells = experiment: Visualization of in vivo cell death with FLIVO probe; set-up: species or system mouse; conditions: Lgr5-EGFP-IRES-creERT2 knock-in mice, RB treatment and laser light irradiation
# Experimental: To measure cell death in live animals, FLIVO™ probes were diluted with PBS containing 1% DMSO at doses according to animal weight. The fluorescent red probe FLIVO™ (Immunochemistry Technologies LLC, Abcys SA, Paris, France) was intravenously injected into wild type and GFP-Lgr5 mice. The mouse was euthanized after 1 hour and the colon tissue was separated therefrom. Fluorescent signals from FLIVO™ were imaged using a confocal microscope.
smiles,measurement,setting,value
"O=C1OC2(c3cc(I)c(O)c(I)c3Oc3c2cc(I)c(O)c3I)c2c(Cl)c(Cl)c(Cl)c(Cl)c21 [RB, rose bengal]",selective cell death of eGFP+ versus eGFP− 4T1 cells,"eGFP+ 4T1 cells; blue laser light (473 nm), FIG. 1B",the cells selectively died
same,eGFP+ cells selectively killed,"eGFP+ 4T1 cells; exposed to 473 nm laser light after RB treatment, FIG. 2A",~60%
same,"cytotoxicity, eGFP+ versus eGFP− cells","eGFP+ 4T1 cells; extremely high concentrations of RB and extremely long exposure time, FIG. 2C",a similar level of cytotoxicity was observed between eGFP+ and eGFP− cells
same,"cell death percentage, eGFP+ versus eGFP− cells","eGFP+ 4T1 cells; higher RB concentration and longer exposure time, FIG. 2C",cell death percentage of eGFP+ cells was higher than that of eGFP− cells
same,maximum absorbance,[1],549 nm
same,shoulder absorbance spectrum,[1],510 nm
same,"cell death effect, YFP+ versus GFP+ cell",[2],the cell death effect of the YFP+ cell is higher than that of GFP+ cell
same,tumor growth,"[3]; GFP+ B16F10 cells in mouse, 473 nm laser light, FIG. 3D, 3E",remarkable tumor inhibiting effect
same,eGFP+ cells removed in grafted tumor,"[3]; mixture of eGFP+ and eGFP− sublines of H460 and B16F10 grafted to mouse, after second round of 473 nm irradiation, FIG. 3B, 3C",~80%
same,eGFP− cells killed,eGFP− 4T1 cells,20%
same,cell death signal in eGFP+-Lgr5+ cell region versus adjacent low-GFP-expression region,eGFP+-Lgr5+ cells,stronger
